Measured values: patent publication US20220324803A1 (Teon Therapeutics, Inc., priority 2019, published 2022)

Key:
[1] = molecular target: T1, human Prostanoid EP4 Receptor (EP4) (Homo sapiens, UniProt P35408); assay: Prostanoid EP4 FLIPR assay (calcium flux, PGE2 addition); assay type: cell-based; details: HEK293 cells transfected with human EP4, Fluo-4 calcium dye
T1 construct: expressed in transfected cells; host or cells: HEK293 (G418 selection); membranes prepared by differential centrifugation
T1 sequence (P35408 whole entry): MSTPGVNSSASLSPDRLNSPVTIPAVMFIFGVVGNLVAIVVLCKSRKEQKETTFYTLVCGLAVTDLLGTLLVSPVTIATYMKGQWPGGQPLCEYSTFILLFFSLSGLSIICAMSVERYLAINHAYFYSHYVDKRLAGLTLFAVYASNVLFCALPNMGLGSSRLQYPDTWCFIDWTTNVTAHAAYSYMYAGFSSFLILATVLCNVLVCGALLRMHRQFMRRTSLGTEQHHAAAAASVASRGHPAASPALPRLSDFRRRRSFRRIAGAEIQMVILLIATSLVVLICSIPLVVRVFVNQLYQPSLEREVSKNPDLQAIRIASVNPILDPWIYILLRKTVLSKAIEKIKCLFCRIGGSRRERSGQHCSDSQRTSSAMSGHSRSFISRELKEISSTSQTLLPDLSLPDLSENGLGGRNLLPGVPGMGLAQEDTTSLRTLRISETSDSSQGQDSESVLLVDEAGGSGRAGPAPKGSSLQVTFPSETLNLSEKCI
Procedure: (§1) HEK293 cells transfected with human Prostanoid EP4 Receptor (EP4) or CHO cells transfected with human Prostanoid EP2 Receptor (EP2) are maintained in DMEM supplemented with L-Glutamine, 10% FBS and 300 μg/ml G418. Cells are plated at 20,000 cells/well in black 384-well Poly-D-Lysine protein coating plate and incubated at 37° C., 5% CO2 for 24 h. Prior to the assay, calcium-sensitive dye Fluo-4 Direct™ (Molecular Devices) is reconstituted according to manufacturer instructions. The reconstituted dye was diluted in assay buffer (1× HBSS, 20 mM HEPES, and 2.5 mM Probenicid, pH 7.4). Growth media is removed and 20 μl of this diluted dye is added to each well at a final concentration of 2 μM. Plates are incubated for 50 min at 37° C. 5% C02 and 10 min at RT after dye addition. Testing compounds are diluted with DMSO to make 10-point 4-fold serial dilution. After the pre-treatment incubation, fluorescence intensity is measured on a FlexStation II fluorometric imaging plate reader (Molecular Devices). Relative fluorescence units (RFU) are measured before (20 readings) and after (40 readings) the PGE2 addition for a total 60 sec read time (Excitation=485 nm, Emission=525 nm). Data are analyzed and IC50 is calculated using GraphPad Prism 5 and the model “log(inhibitor) vs. response—Variable slope”.
(§2) Illustrative data for representative compounds are described in Table 2.

[2] = molecular target: T1, human Prostanoid EP4 Receptor (EP4); assay: Prostanoid EP4 binding assay (3H-prostaglandin E2 displacement, cell membranes); details: HEK293 cell membranes with human EP4, 3H-prostaglandin E2, 24° C.
Procedure: HEK293 cells transfected with human Prostanoid EP4 Receptor (EP4) are maintained in DMEM supplemented with L-Glutamine, 10% FBS and 300 μg/ml G418. Cells are harvested and membranes prepared by differential centrifugation, following lysis of the cells in the presence of protease inhibitors, for use in the receptor binding assay. EP4 binding assay is performed in 50 mM HEPES pH7.4, 5 mM MgCl2, 1 mM CaCl2) and 0.2% BSA. Testing compounds are diluted with DMSO to make 8-point 4-fold serial dilution. Cell membrane homogenates are incubated at 24° C. with ^3H-prostaglandin E2 in the absence or presence of the testing compound in assay buffer. Nonspecific binding (Low control: LC) and total binding (High control: HC) are determined in the presence or absence of saturated cold ligand Prostaglandin E2 (PGE2). Specific binding is calculated by subtracting nonspecific binding from total binding. When binding assays are completed, the reaction mixture is filtered rapidly under vacuum through glass fiber filters (GF/C, Packard) presoaked with 0.5% BSA for at least 0.5 hour at room temperature and then washed for 4 times with cold wash buffer (50 mM HEPES pH7.4, 500 mM NaCl, 0.1% BSA) using a 96-sample Perkin Elmer Filtermate Harvester (Unifilter, Packard). The filters are dried for 1 hour at 50 degrees then counted for radioactivity in a scintillation counter using Perkin Elmer Microscint 20 cocktail. ^3H trapped on filter is counted using Perkin Elmer MicroBeta2 Reader. Inhibition is calculated using following equation: % Inhibition=(1−(Assay well−Average_LC)/(Average_HC−Average_LC))×100%. The results are expressed as a percent inhibition of the control radioligand specific binding. Data are analyzed and IC50 is calculated using GraphPad Prism 5 and the model “log(inhibitor) vs. response—Variable slope”. The binding affinity of the compounds is determined by using the Cheng and Prusoff equation Ki=IC50/(1+[radioligand]/Kd).

[3] = molecular target: T2, human Prostanoid EP2 Receptor (EP2) (Homo sapiens, UniProt P43116); assay: Prostanoid EP2 FLIPR assay (calcium flux, PGE2 addition); assay type: cell-based; details: CHO cells transfected with human EP2, Fluo-4 calcium dye
T2 construct: expressed in transfected cells; host or cells: CHO (G418 selection)
T2 sequence (P43116 whole entry): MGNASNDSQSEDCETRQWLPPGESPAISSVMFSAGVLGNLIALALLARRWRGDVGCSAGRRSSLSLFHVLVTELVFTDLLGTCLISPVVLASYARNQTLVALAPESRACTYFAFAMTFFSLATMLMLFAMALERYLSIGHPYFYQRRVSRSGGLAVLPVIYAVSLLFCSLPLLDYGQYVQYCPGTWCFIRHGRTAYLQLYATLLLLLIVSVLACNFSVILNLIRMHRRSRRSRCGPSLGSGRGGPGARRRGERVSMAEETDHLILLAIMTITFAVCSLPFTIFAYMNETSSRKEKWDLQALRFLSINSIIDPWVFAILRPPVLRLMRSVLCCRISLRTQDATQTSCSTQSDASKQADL
Procedure: as §1, §2

[4] = test system: castration-resistant prostate cancer; details: mouse xenograft disease model; Terada et al. 2010; cited from earlier work
[5] = test system: murine mammary tumour cells; details: mouse, in vivo; cited from earlier work
[6] = test system: human inflammatory breast cancer cells; details: Robertson et al. 2008; cited from earlier work
[7] = test system: human NSCLC; details: in vitro; cited from earlier work
[8] = test system: aberrant crypt foci and intestinal polyps; details: mouse disease model; Mutoh et al. 2002; cited from earlier work

| IC50 [1] [nM] | Ki [2] [nM] | IC50 [3] [nM] | Structure (SMILES) | other results |
| --- | --- | --- | --- | --- |
| < 100 | < 100 | > 1000 | C[C@H](NC(=O)c1cnn2cccc(Cc3cc4ccccc4cn3)c12)c1ccc(C(=O)O)cc1 [Compound 12, 4-[(1S)-1-[[4-(3-isoquinolylmethyl)pyrazolo[1,5-a]pyridine-3-carbonyl]amino]ethyl]benzoic acid] |  |
| < 100 | 100 to 499 |  | O=C(O)CC12CC(NC(=O)c3n[nH]c4cccc(Cc5ccc(C(F)(F)F)cc5)c34)(C1)C2 [Compound 18, 2-(3-(4-(4-(trifluoromethyl)benzyl)-1H-indazole-3-carboxamido)bicyclo[1.1.1]pentan-1-yl)acetic acid] |  |
| 100 to 499 | 100 to 499 | > 1000 | O=C(N[C@H]1CC2(C1)C[C@H](C(=O)O)C2)c1cnn2cccc(Cc3ccc(C(F)(F)F)cc3)c12 (single isomer, unassigned) [Compound 14A, cis-6-[[4-[[4-(trifluoromethyl)phenyl]methyl]pyrazolo[1,5-a]pyridine-3-carbonyl]amino]spiro[3.3]heptane-2-carboxylic acid] |  |
| < 100 | < 100 | > 1000 | O=C(O)CC12CC(NC(=O)c3cnn4cccc(Cc5ccc(C(F)(F)F)cc5)c34)(C1)C2 [Compound 15, 2-[3-[[4-[[4-(trifluoromethyl)phenyl]methyl]pyrazolo[1,5-a]pyridine-3-carbonyl]amino]-1-bicyclo[1.1.1]pentanyl]acetic acid] |  |
| < 100 | < 100 | > 1000 | O=C(N[C@H]1CC2(C1)C[C@H](C(=O)O)C2)c1cnn2cccc(Cc3ccc(C(F)(F)F)cc3)c12 (single isomer, unassigned) [Compound 14B, trans-2-[[4-[[4-(trifluoromethyl)phenyl]methyl]pyrazolo[1,5-a]pyridine-3-carbonyl]amino]spiro[3.3]heptane-6-carboxylic acid] |  |
| 100 to 499 | > 500 |  | O=C(O)CC12CC(NC(=O)c3cnn4cccc(Cc5cccc(C(F)(F)F)c5)c34)(C1)C2 [Compound 16, 2-[3-[[4-[[3-(trifluoromethyl)phenyl]methyl]pyrazolo[1,5-a]pyridine-3-carbonyl]amino]-1-bicyclo[1.1.1]pentanyl]acetic acid] |  |

Further lines, the compound ahead of its results:

| Structure (SMILES) | IC50 [1] [nM] | Ki [2] [nM] | IC50 [3] [nM] | other results |
| --- | --- | --- | --- | --- |
| CC(C(=O)Nc1cc(C#N)ccc1CCCC(=O)O)c1ccc(F)c2ccccc12 (stereo not drawn) [ONO-AE3-208] |  |  |  | castration-resistant prostate cancer progression [4]: suppressed castration-resistant prostate cancer progression; metastasis of murine mammary tumour cells [5]: reduced metastasis |
| CCOc1c2c(c(OCC)c3ccccc13)C(=O)N(c1ccc(CC(=O)NS(=O)(=O)c3ccccc3)cc1)C2 [GW-627368X] |  |  |  | proliferation and invasion of human inflammatory breast cancer cells [6]: selectively inhibited both proliferation and invasion |
| C[C@H](NC(=O)c1cnn2cccc(Cc3cccc(C(F)(F)F)c3)c12)c1ccc(C(=O)O)cc1 [Compound 3, 4-[(1S)-1-[[4-[[3-(trifluoromethyl)phenyl]methyl]pyrazolo[1,5-a]pyridine-3-carbonyl]amino]ethyl]benzoic acid] | < 100 | < 100 | > 1000 |  |
| CCn1nc(C(=O)N[C@@H](C)c2ccc(C(=O)O)cc2)c2c(Cc3ccc(C(F)(F)F)cc3)cccc21 [Compound 9, 4-[(1S)-1-[[1-ethyl-4-[[4-(trifluoromethyl)phenyl]methyl]indazole-3-carbonyl]amino]ethyl]benzoic acid] | < 100 | < 100 | > 1000 |  |
| C[C@H](NC(=O)c1n[nH]c2cccc(Cc3ccc(C(F)(F)F)cc3)c12)c1ccc(C(=O)O)cc1 [Compound 7, 4-[(1S)-1-[[4-[[4-(trifluoromethyl)phenyl]methyl]-1H-indazole-3-carbonyl]amino]ethyl]benzoic acid] | < 100 | < 100 | > 1000 |  |
| CCn1nc2cccc(Cc3ccc(C(F)(F)F)cc3)c2c1C(=O)N[C@@H](C)c1ccc(C(=O)O)cc1 [Compound 10, 4-[(1S)-1-[[2-ethyl-4-[[4-(trifluoromethyl)phenyl]methyl]indazole-3-carbonyl]amino]ethyl]benzoic acid] | < 100 | 100 to 499 | > 1000 |  |
| O=C(NC1CC2(C1)CC(C(=O)O)C2)c1cnn2cccc(Cc3cc4ccccc4cn3)c12 (single isomer, unassigned) [Compound 13A, cis-2-[[4-(3-isoquinolylmethyl)pyrazolo[1,5-a]pyridine-3-carbonyl]amino]spiro[3.3]heptane-6-carboxylic acid] | 100 to 499 | > 500 |  |  |
| O=C(NC1CC2(C1)CC(C(=O)O)C2)c1cnn2cccc(Cc3cccc(C(F)(F)F)c3)c12 (stereo not drawn) [Compound 4, 2-[[4-[[3-(trifluoromethyl)phenyl]methyl]pyrazolo[1,5-a]pyridine-3-carbonyl]amino]spiro[3.3]heptane-6-carboxylic acid] | < 100 | < 100 | > 1000 |  |
| O=C(O)CC/C=C\CC[C@H]1[C@H](N2CCOCC2)C(=O)C[C@H]1OCc1ccc(-c2ccccc2)cc1 [AH-23848] |  |  |  | tumorigenic effects of PGE2 on human NSCLC growth [7]: successfully inhibited; metastasis of murine mammary tumour cells [5]: reduced metastasis |
| C[C@H](NC(=O)c1cnn2cccc(Cc3ccc(C(F)(F)F)cc3)c12)c1ccc(C(=O)O)cc1 [Compound 1, 4-[(1S)-1-[[4-[[4-(trifluoromethyl)phenyl]methyl]pyrazolo[1,5-a]pyridine-3-carbonyl]amino]ethyl]benzoic acid] | < 100 | < 100 | > 1000 |  |
| O=C(NC1CC2(C1)CC(C(=O)O)C2)c1cnn2cccc(Cc3ccc(C(F)(F)F)cc3)c12 (stereo not drawn) [Compound 2, 2-[[4-[[4-(trifluoromethyl)phenyl]methyl]pyrazolo[1,5-a]pyridine-3-carbonyl]amino]spiro[3.3]heptane-6-carboxylic acid] | < 100 | < 100 | > 1000 |  |
| O=C(NC1CC2(C1)CC(C(=O)O)C2)c1n[nH]c2cccc(Cc3ccc(C(F)(F)F)cc3)c12 (stereo not drawn) [Compound 8, 2-[[4-[[4-(trifluoromethyl)phenyl]methyl]-1H-indazole-3-carbonyl]amino]spiro[3.3]heptane-6-carboxylic acid] | < 100 | < 100 | > 1000 |  |
| CC(C(=O)Nc1ccccc1Cc1ccccc1C(=O)O)c1cccc2ccccc12 (stereo not drawn) [ONO-AE2-227] |  |  |  | formation of aberrant crypt foci and intestinal polyps [8]: reduced the formation of aberrant crypt foci and intestinal polyps |
